Results: PubChem BioAssay AID179 (DTP/NCI, 2004)
Values joined by “and” are separate entries in the source; they are usually repeats but may differ in a detail not shown here. Equal entries are not always repeated. Active and inactive are the calls of the source.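 How the source made its calls: active means compounds giving half or more protection of infected cells from virus-caused growth loss, again on retest; inactive means the rest.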

Test system: CEM cells HIV-1 protection, formazan growth assay
Assay: NCI AIDS Antiviral Assay
Conditions: for IC50: measured here: growth of uninfected CEM cells
Outline: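 Human CEM cells, uninfected and HIV-1-infected, received five drug concentrations, and growth was read by soluble formazan assay. Compounds giving at least 50% protection were retested; reproducible 100% protection defined confirmed active.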

Structure (SMILES)	EC50	IC50	outcome
COC(=O)/C(C#N)=C(/NCc1ccccc1)Nc1ccccc1	> 200 µM	22.4 µM	–
NP(=O)(Nc1ccccc1)Nc1ccccc1	> 200 µM	> 200 µM	–
Nc1ccc2c(c1)C(=O)N(OS(=O)(=O)c1ccccc1)C2=O	–	–	inactive
CSc1ncnc2c1ncn2CCC#N	> 200 µM	> 200 µM	–
C[C@]12CCC3[C@@H](CCC4(C=N)CC(=O)CC[C@]34C)C1CC[C@@H]2O (some centres undefined)	–	–	inactive
Cc1nnc(NS(=O)(=O)c2ccc(N=NC3SC(=S)NC3=O)cc2)s1 (centres undefined)	> 200 µM	> 200 µM	–
COc1cc(C(=O)Nc2c3ccccc3nc3ccccc23)cc(OC)c1OC	> 200 µM	> 200 µM	–
O=C(O)CCCCCCCCCCCc1ccccc1	> 200 µM	18.6 µM	–
O=[N+]([O-])c1ccc(C2=Nn3cnnc3SC2)o1	–	–	inactive
CC1(C)C=CC2=C(O1)C(=O)c1ccccc1C2=O	> 200 µM	32.4 µM and 26.9 µM	–
Nc1nc(N)c(C2=CCN(Cc3ccccc3)CC2)c(=O)[nH]1	> 200 µM	> 200 µM	–
CN(C)C=NCC(O)c1ccccc1 (centres undefined)	> 200 µM	> 200 µM	–
CCOC(=S)SCCSC	> 200 µM	> 200 µM	–
Cc1nc2c(s/c(=N\N)n2-c2ccccc2)c(=O)n1C	> 13.2 µM	> 13.2 µM	–
Nc1ccc(I)cn1	> 200 µM	> 200 µM	–
Cn1nc(-c2ccc(Cl)c(Cl)c2)nc2c(=O)n(C)c(=O)nc1-2	> 200 µM	3.8 µM	–
CCN(CC)CCCNCc1cc(Cl)c2cccnc2c1O	> 200 µM	9.77 µM	–
COc1ccc2oc(=S)[nH]c2c1	> 200 µM	> 200 µM	–
Cc1ccc(S[C@@H](C)[C@@](O)(C(N)=O)c2ccccc2)cc1	> 200 µM	30.2 µM	–
Cc1ccnc(NC(=S)Nc2cccc(Cl)c2)c1	57.5 µM	> 200 µM	–
CC/C=C(\C)C(CCC)(CN=O)C(=O)OCC (centres undefined)	–	–	inactive
CC(=O)OCC1OC(N2C(c3ccccc3)=CC(c3cccs3)C(C#N)=C2S)C(OC(C)=O)C(OC(C)=O)C1OC(C)=O (centres undefined)	81.3 µM	> 200 µM	–
N#C/C(=C\c1cccc(OCc2ccccc2)c1)c1ccc([N+](=O)[O-])cc1	> 200 µM	151 µM	–

Structure (SMILES)	EC50	IC50	outcome
NC(=O)c1ncn2c1NC(=O)CC2	–	–	inactive
CC(=O)c1ccc2c(c1)oc(=O)n2CCN(C)C	> 200 µM	141 µM	–
CC(Cn1c(=O)oc2ccccc21)N(C)C (centres undefined)	> 200 µM	> 200 µM	–
NC(=O)C1c2ccccc2C=Cc2ccccc21	> 200 µM	155 µM	–
N#C/C(=C1/Sc2c(nc[nH]c2=O)N1c1ccccc1)c1nc2ccccc2[nH]1	> 3.8 µM	> 3.8 µM	–
COC(=O)C12CC3CC(CC(C(=O)O)(C3)C1)C2	> 759 µM	> 759 µM	–
Oc1ccc(O)c(CNc2ccc(C(O)C(F)(F)F)cc2)c1 (centres undefined)	> 200 µM	18.6 µM	–
Nc1ncc2c(ncn2CCO)n1	> 282 µM	> 282 µM	–
N#C/C(=C\c1ccccc1Cl)C(=O)c1ccccc1	> 132 µM	13.2 µM	–
O=C(c1ccccc1)C1C[C@H]2CO[C@H](c3ccccc3)N2C1=O (some centres undefined)	> 200 µM	69.2 µM	–
CCCCCCCCCC1(N=[N+]=[N-])C(=O)c2ccccc2N(C)C1=O (centres undefined)	> 200 µM	33.9 µM	–
c1ccc2c(c1)oc1cc3c(cc12)nnc1cccn13	> 200 µM	> 200 µM	–
NC1=NC(=O)/C(=C/c2ccccc2[N+](=O)[O-])C(N)=N1	–	–	inactive
Cc1cc[n+]2c(c1)-c1cc(C)cc[n+]1CC2	> 200 µM	162 µM	–
C/C(=C\[C@H]1C[C@@H]([C@@H]2CC[C@]34C[C@]23C=C[C@@H]2[C@@]3(C)CC=C5C[C@@H](c6ccccc6)OC[C@]5(C)[C@@H]3C[C@@H](O)[C@]24C)C(=O)O1)CO	> 200 µM	1.1 µM	–
Cc1nc(N(CCO)CCO)c2sc(=S)n(-c3ccccc3)c2n1	> 10.5 µM	> 10.5 µM	–
Cn1c(-c2ccc(/C=N/N=C/c3ccc(-c4c[n+]5ccccc5n4C)cc3)cc2)c[n+]2ccccc12	> 200 µM	170 µM	–
CC(C)(c1ccc(OC#N)cc1)c1ccc(OC#N)cc1	> 67.6 µM	> 67.6 µM	–
C=C1CC(CNc2cc(Cl)nc(N)n2)C1	> 200 µM	55 µM	–
O=C([O][Bi]([c]1ccccc1)[c]1ccccc1)c1ccccc1	> 38.9 µM	> 38.9 µM	–
O=C1CCC(N2C(=O)C3CC=CCC3C2=O)C(=O)N1 (centres undefined)	> 200 µM	> 200 µM	–
O=C(O)c1[nH]c(=O)[nH]c(=O)c1C(=O)O	> 200 µM	> 200 µM	–
O=C(O)CCC1CCc2cccc3oc(C(=O)O)c1c23 (centres undefined)	–	–	inactive

Structure (SMILES)	EC50	IC50	outcome
CC12CCC(=O)[C@@]1(C)CCCC2O (some centres undefined)	–	–	inactive
N#Cc1ccccc1NC(=O)C(=O)C(C(=O)c1ccccc1F)C1OC(=O)c2ccccc21 (centres undefined)	> 112 µM	16.2 µM	–
O=C(CC(=O)c1ccccc1NC1=Cc2ccccc2C(=O)C1=O)C(=O)NC1=C(Cl)C(=O)c2ccccc2C1=O	> 18.2 µM	3.24 µM	–
CCC1=CC2CC(C(=O)OC)C1(N(C)C)C2=O (centres undefined)	–	–	inactive
O=C(Nc1ccc(C(F)(F)F)cc1)NC(F)(F)F	> 200 µM	> 200 µM	–
Cc1ccc(S(=O)(=O)c2ccccc2[N+](=O)[O-])cc1	14.5 µM	81.3 µM	–
CC(C)OP(=O)(CP(=O)(OC(C)C)OC(C)C)CP(=O)(OC(C)C)OC(C)C	> 537 µM	93.3 µM	–
COc1ccc2nc3c([N+](=O)[O-])ccc4c3c(c2c1)NCCN4CCN(C)C	> 200 µM	1.05 µM	–
CC1(C)COP(Oc2ccccc2)OC1	> 200 µM	> 200 µM	–
CC[N+]1(CC)CC[N+]2(CCCC(C)CC2)CC1 (centres undefined)	–	–	inactive
Cc1ccc2nc(NC(=O)C(=O)CC(=O)c3cccc4ccccc34)sc2c1	> 33.9 µM	> 33.9 µM	–
NC(=O)c1ncn(C2OC(CO)C(O)C2O)c1NC(=S)NC(=O)c1ccccc1 (centres undefined)	> 589 µM	> 589 µM	–
CC1=CC(=O)CCC2(C)C1CC[C@@H]2OC=O (some centres undefined)	–	–	inactive
COc1cc(/C=C(\NC(=O)c2ccccc2)c2nc3[nH]c(=S)[nH]c(=O)c3[nH]2)cc(OC)c1OC	–	–	inactive
CCOP(=O)(CN=C(c1ccccc1)c1ccccc1)OCC	> 200 µM	> 200 µM	–
O=C1NC(=O)C(=Cc2ccccc2[N+](=O)[O-])C(=O)N1	–	–	inactive
COc1ccc(-c2c3c(nc4nc(SCC(=O)c5ccc(Br)cc5)nc(N)c24)CCCC3)cc1OC	> 200 µM	151 µM	–
O=c1cc(-c2ccccc2)oc2ccccc12	> 135 µM	75.9 µM	–
COC1(OC)CC(CO)(CNc2nc(N)nc(Cl)c2C=O)C1	> 162 µM	14.1 µM	–
O=C(C(Cl)=C(N1CCCCC1)N1CCCCC1)C(Cl)Cl	> 200 µM	174 µM	–
CCOC(=O)NC1=NCC(C)S1 (centres undefined)	–	–	inactive
Cc1ccnc(NS(=O)(=O)c2ccc(N=Nc3cc4ccccc4c(C(=O)O)c3O)cc2)n1	> 200 µM	10 µM	–
COC(=O)c1cc(C(=O)c2cc(Br)c(OC)c(C(=O)OC)c2)cc(Br)c1OC	> 200 µM	67.6 µM	–
